Molecules are shown by their SMILES.

Assay [1] deals with T1, homoserine-dehydrogenase (HD) (Pseudomonas alvandae, UniProt P0DXC5).
T1 sequence (P0DXC5 1-352): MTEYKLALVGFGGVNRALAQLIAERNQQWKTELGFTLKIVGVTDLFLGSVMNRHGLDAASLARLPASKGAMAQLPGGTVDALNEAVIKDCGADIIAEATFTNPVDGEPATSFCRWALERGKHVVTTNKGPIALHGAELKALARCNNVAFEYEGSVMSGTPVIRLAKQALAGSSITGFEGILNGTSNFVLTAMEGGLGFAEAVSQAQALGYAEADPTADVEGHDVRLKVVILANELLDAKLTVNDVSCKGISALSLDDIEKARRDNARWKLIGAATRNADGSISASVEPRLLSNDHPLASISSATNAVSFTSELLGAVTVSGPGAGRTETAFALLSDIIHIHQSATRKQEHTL
The assay can be described thus: NADH formation. The format is biochemical. As to conditions: homoserine as co-substrate.

In assay [2] the target is T2, canavanine-γ-lyase (CanγL); aminotransferase AT (Pseudomonas alvandae, UniProt P0DXC4).
T2 sequence (P0DXC4 1-400): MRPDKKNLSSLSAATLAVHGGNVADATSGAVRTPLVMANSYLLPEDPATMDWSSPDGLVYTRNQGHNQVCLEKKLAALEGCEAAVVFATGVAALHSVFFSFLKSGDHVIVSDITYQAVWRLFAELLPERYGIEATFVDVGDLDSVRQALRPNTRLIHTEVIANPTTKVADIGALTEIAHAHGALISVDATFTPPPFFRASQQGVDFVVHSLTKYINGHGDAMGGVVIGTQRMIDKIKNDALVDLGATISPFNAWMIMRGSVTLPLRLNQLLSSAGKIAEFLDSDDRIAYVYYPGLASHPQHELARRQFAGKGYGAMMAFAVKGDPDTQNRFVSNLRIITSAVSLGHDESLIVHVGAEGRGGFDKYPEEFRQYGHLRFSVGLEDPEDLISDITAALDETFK
The assay can be described thus: UV/Vis spectra of the enzyme reaction. It is filed as binding. Conditions: covalent (internal aldimine with K213); canavanine as substrate.

The target of assay [3] is T3, aldehyde-dehydrogenase 2 (AC) (Pseudomonas alvandae, UniProt P0DXC6).
T3 sequence (P0DXC6 1-485): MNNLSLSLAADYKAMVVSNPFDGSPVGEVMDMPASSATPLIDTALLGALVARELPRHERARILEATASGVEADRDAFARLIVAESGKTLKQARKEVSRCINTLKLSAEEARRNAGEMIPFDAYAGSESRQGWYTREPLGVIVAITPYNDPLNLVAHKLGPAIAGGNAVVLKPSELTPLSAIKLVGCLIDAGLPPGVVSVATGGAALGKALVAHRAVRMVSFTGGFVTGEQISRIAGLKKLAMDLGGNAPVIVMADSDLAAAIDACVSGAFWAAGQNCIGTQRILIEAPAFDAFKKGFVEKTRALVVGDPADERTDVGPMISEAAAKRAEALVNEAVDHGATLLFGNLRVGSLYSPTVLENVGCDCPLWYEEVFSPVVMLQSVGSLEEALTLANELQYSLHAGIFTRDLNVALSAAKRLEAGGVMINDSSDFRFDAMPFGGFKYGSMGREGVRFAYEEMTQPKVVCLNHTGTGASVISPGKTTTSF
Put plainly: 1H-NMR of coupled reaction homoserine to fumarate. The format is biochemical. Conditions: aspartate semialdehyde formed in situ from homoserine by HD; with AAL.

For assay [4], the target named is T4, aldehyde-dehydrogenase 1 (AH) (Pseudomonas alvandae, UniProt P0DXC7).
T4 sequence (P0DXC7 1-470): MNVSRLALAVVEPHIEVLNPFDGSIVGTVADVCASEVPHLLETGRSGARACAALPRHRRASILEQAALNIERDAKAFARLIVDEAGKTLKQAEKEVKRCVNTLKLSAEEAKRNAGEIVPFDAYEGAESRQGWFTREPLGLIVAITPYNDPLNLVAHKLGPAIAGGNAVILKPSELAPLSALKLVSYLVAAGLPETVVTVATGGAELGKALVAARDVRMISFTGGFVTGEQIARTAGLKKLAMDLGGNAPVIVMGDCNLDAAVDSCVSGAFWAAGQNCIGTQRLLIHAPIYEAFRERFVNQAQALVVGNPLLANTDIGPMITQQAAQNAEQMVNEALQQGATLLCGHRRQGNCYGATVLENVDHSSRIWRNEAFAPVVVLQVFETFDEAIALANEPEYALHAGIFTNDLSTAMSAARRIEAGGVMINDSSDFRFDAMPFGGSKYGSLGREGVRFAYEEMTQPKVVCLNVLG
The assay can be described thus: 1H-NMR of coupled reaction homoserine to fumarate. The format is biochemical. Conditions: aspartate semialdehyde formed in situ from homoserine by HD; with AAL.

The target of assay [5] is T5, ammonium–aspartate–lyase (AAL) (Pseudomonas alvandae, UniProt P0DXC8).
T5 sequence (P0DXC8 1-474): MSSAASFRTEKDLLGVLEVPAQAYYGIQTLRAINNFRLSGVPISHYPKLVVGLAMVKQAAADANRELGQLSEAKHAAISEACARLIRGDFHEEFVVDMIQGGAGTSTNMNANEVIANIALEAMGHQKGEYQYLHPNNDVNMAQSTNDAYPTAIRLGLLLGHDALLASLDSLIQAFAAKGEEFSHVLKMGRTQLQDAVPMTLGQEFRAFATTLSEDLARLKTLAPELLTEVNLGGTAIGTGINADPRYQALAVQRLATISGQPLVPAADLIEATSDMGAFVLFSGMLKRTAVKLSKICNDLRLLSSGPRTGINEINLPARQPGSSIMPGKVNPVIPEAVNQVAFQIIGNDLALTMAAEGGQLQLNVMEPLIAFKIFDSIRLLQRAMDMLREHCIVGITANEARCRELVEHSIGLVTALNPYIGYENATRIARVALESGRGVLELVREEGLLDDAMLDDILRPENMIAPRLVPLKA
Put plainly: 1H-NMR of coupled reaction homoserine to fumarate. It is filed as biochemical. Conditions: aspartate formed in situ by HD with AH or AC.

Assay [6] concerns the target T1, homoserine-dehydrogenase (HD). The assay can be described thus: NADH formation. Conditions: NAD+ as co-substrate. It is filed as biochemical.

For `NC(=O)c1ccc[n+]([C@@H]2O[C@H](COP(=O)(O)OP(=O)(O)OC[C@H]3O[C@@H](n4cnc5c(N)ncnc54)[C@H](O)[C@@H]3O)[C@@H](O)[C@H]2O)c1` [NAD+], the NADH formation entry in assay [1] is “the reaction of HD was only dependent on the cofactor NAD^+”. Regarding `Cc1ncc(COP(=O)(O)O)c(C=O)c1O` [PLP], in assay [2], the “UV/Vis spectra of the enzyme reaction; K213A comparison” value is “Time-dependent increase of presumed aldimine and quinonoid peaks were observed for the wt enzyme”. Regarding `N[C@@H](CC=O)C(=O)O` [aspartate semialdehyde], the “1H-NMR of coupled reaction homoserine to fumarate” value in assay [3] is “purified HD with either of the two aldehyde-dehydrogenases AH or AC and AAL”; in assay [4], “purified HD with either of the two aldehyde-dehydrogenases AH or AC and AAL”. For the molecule `N[C@@H](CC(=O)O)C(=O)O` [aspartate], the “1H-NMR of coupled reaction homoserine to fumarate” value in assay [5] was “AH or AC and AAL the formation of fumarate via aspartate was observed”.

With `N[C@@H](CCO)C(=O)O` [homoserine], the “NADH formation; 1H-NMR of the coupled reaction” value in assay [6] is “homoserine-dehydrogenase (HD) which catalyzes the conversion of homoserine and NAD+”.

Source of the values: PMC9533460 (RSC Chemical Biology, 2022).
